Experimental data: patent US20140107107A1, “PHARMACEUTICAL FORMULATION CONTAINING THIENOTRIAZOLODIAZEPINE COMPOUNDS” (Oncoethix SA, priority 2012, published 2014)

How the values were obtained:
[1] = pharmacokinetics and oral bioavailability in dogs; type: in vivo; settings: male, beagle, dog, plasma, 1 mg/kg IV
Description: Blood samples were collected from the jugular vein of each animal at 0 (pre-dose), 5, 15, and 30 minutes and 1, 2, 4, 8, 12, and 24 hours following intravenous administration and at 0 (pre-dose), 15 and 30 minutes and 1, 2, 4, 8, 12, and 24 hours following oral gavage administration. The amount of compound (1-1) present in each sample was detected using a qualified LC-MS/MS method with a lower limit of quantification of 0.5 ng/mL. The area under the plasma concentration-time curve (AUC) was determined by use of the linear trapezoidal rule up to the last measurable concentration without extrapolation of the terminal elimination phase to infinity. The elimination half-life (t1/2) was calculated by least-squares regression analysis of the terminal linear part of the log concentration-ime curve. The maximum plasma concentration (Cmax) and the time to Cmax (tmax) were derived directly from the plasma concentration data. The oral bioavailability (F) was calculated by dividing the dose normalized AUC after oral administration by the dose normalized AUC after intravenous administration and reported as percentages (%).

[2] = oral exposure in the rat (pharmacokinetics); type: in vivo, Hsd:Sprague Dawley rats; settings: 1 mg/kg intravenous
Description: The oral bioavailability of three formulations of solid dispersions of compound (1-1) was determined in rats. The three dispersions chosen were the 25% dispersion of compound (1-1) in PVP, the 25% dispersion of compound (1-1) in HPMCAS-MG, and the 50% dispersion of compound (1-1) in HPMCAS-MG. The animals used in the study were Specific Pathogen Free (SPF) Hsd:Sprague Dawley rats obtained from the Central Animal Laboratory at the University of Turku, Finland. The rats were originally purchased from Harlan, The Netherlands. The rats were female and were ten weeks of age, and 12 rats were used in the study. The animals were housed in polycarbonate Makrolon II cages (three animals per cage), the animal room temperature was 21+/−3° C., the animal room relative humidity was 55+/−15%, and the animal room lighting was artificial and was cycled for 12 hour light and dark periods (with the dark period between 18:00 and 06:00 hours). Aspen chips (Tapvei Oy, Estonia) were used for bedding, and bedding was changed at least once per week. Food and water was provided prior to dosing the animals but was removed during the first two hours after dosing.
The oral dosing solutions containing the 25% dispersion of compound (1-1) in PVP, the 25% dispersion of compound (1-1) in HPMCAS-MG, and the 50% dispersion of compound (1-1) in HPMCAS-MG were prepared by adding a pre-calculated amount of sterile water for injection to containers holding the dispersion using appropriate quantities to obtain a concentration of 0.75 mg/mL of compound (1-1). The oral dosing solutions were subjected to vortex mixing for 20 seconds prior to each dose. The dosing solution for intravenous administration contained 0.25 mg/mL of compound (1-1) and was prepared by dissolving 5 mg of compound (1-1) in a mixture containing 4 mL of polyethylene glycol with an average molecular weight of 400 Da (PEG400), 4 mL of ethanol (96% purity), and 12 mL of sterile water for injection. The dosing solution containing the 25% dispersion of compound (1-1) in PVP was used within 30 minutes after the addition of water. The dosing solutions containing the 25% dispersion of compound (1-1) in HPMCAS-MG and the 50% dispersion of compound (1-1) in HPMCAS-MG were used within 60 minutes of after the addition of water. A dosing volume of 4 mL/kg was used to give dose levels of compound (1-1) of 1 mg/kg for intravenous administration and 3 mg/kg for oral administration.
Blood samples of approximately 50 μL were collected into Eppendorf tubes containing 5 μL of ethylenediaminetetraacetic acid (EDTA) solution at time points of 0.25, 0.5, 1, 2, 4, 8, 12, and 24 hours after dosing, with each sample collected within a window of 5 minutes from the prescribed time point. From each sample, 20 μL of plasma was obtained and stored at dry ice temperatures for analysis. Analysis of each sample for the concentration of compound (1-1) was performed using a validated liquid chromatography tandem mass spectrometry (LC-MS/MS) method with a lower limit of quantitation of 0.5 ng/mL.
Pharmacokinetic parameters were calculated with the Phoenix WinNonlin software package (version 6.2.1, Pharsight Corp., CA, USA) with standard noncompartmental methods. The elimination phase half-life (t1/2) was calculated by least-squares regression analysis of the terminal linear part of the log concentration-time curve. The area under the plasma concentration-time curve (AUC) was determined by use of the linear trapezoidal rule up to the last measurable concentration and thereafter by extrapolation of the terminal elimination phase to infinity. The mean residence time (MRT), representing the average amount of time a compound remains in a compartment or system, was calculated by extrapolating the drug concentration profile to infinity. The maximum plasma concentration (Cmax) and the time to Cmax (tmax) were derived directly from the plasma concentration data. […]

[3] = female, Hsd:Sprague Dawley, plasma

half-life [1]: 1.5 h
Cmax ([1]; average of three dogs): 769 ng/mL
Tmax ([1]; average of three dogs): 4.98 min
AUC ([1]; to last measurable concentration): 889 ng·h/mL
CI/F [2]: 13.4 mL/min/kg
Cmax [2, 3]: 730 ng/mL
MRT [2, 3]: 7.4 h
Tmax [2, 3]: 0.25 h
half-life [2, 3]: 8.5 h
AUC ([2]; female, Hsd:Sprague Dawley, plasma, extrapolated to infinity): 1240 ng·h/mL
Compound: Cc1sc2c(c1C)C(c1ccc(Cl)cc1)=N[C@@H](CC(=O)Nc1ccc(O)cc1)c1nnc(C)n1-2 [Compound (1-1), 2-[(6S)-4-(4-chlorophenyl)-2,3,9-trimethyl-6H-thienol[3,2f]-[1,2,4]triazolo[4,3-a][1,4]diazepin-6-yl]-N-(4-hydroxyphenyl)acetamide dihydrate]
